Values quoted from earlier work in patent publication US11234954B2, “Low-dose doxepin for treatment of sleep disorders in elderly patients” (Pernix Sleep, Inc., priority 2006, dated 2022).

Conditions: major active metabolite of doxepin; cited from earlier work

In the case of `CNCC/C=C1\c2ccccc2COc2ccccc21` [desmethyldoxepin, Desmethyldoxepin], the half-life is given as 51 h.
